Assay results taken from ChEMBL document CHEMBL3991601, “The target landscape of clinical kinase drugs” (Science, 2017).
The source made the active and inactive calls. Rule as the data show it, for most assays here: actives have a measured Kd and inactives only a lower limit.

How the values were obtained:
[1] = target: AP2-associated protein kinase 1 (Homo sapiens, UniProt Q2M2I8)
[2] = target: T1, Acyl-CoA dehydrogenase family member 11 (Homo sapiens, UniProt Q709F0)
T1 sequence (Q709F0 whole entry): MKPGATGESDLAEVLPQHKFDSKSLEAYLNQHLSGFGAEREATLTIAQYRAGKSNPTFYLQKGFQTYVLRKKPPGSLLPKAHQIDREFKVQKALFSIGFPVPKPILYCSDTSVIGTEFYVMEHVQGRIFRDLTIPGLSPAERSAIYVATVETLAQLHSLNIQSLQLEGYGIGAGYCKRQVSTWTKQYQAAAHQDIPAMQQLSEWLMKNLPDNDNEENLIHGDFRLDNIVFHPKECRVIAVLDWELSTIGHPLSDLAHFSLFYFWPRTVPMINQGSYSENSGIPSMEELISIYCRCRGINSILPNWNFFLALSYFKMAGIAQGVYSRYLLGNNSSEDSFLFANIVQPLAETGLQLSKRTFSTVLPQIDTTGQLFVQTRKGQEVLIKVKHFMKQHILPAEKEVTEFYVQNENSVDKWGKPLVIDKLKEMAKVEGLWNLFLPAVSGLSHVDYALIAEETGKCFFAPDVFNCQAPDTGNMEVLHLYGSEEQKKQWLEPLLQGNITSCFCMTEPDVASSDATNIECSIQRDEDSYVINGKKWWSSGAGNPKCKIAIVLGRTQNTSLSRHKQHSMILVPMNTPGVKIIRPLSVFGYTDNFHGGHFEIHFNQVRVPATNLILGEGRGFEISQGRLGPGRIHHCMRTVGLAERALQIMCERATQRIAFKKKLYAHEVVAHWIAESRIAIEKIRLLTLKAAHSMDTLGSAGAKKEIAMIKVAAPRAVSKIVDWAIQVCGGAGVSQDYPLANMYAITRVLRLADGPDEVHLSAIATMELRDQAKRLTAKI

Ephrin type-B receptor 4 = target: T2, Ephrin type-B receptor 4 (Homo sapiens, UniProt P54760)
T2 sequence (P54760 whole entry): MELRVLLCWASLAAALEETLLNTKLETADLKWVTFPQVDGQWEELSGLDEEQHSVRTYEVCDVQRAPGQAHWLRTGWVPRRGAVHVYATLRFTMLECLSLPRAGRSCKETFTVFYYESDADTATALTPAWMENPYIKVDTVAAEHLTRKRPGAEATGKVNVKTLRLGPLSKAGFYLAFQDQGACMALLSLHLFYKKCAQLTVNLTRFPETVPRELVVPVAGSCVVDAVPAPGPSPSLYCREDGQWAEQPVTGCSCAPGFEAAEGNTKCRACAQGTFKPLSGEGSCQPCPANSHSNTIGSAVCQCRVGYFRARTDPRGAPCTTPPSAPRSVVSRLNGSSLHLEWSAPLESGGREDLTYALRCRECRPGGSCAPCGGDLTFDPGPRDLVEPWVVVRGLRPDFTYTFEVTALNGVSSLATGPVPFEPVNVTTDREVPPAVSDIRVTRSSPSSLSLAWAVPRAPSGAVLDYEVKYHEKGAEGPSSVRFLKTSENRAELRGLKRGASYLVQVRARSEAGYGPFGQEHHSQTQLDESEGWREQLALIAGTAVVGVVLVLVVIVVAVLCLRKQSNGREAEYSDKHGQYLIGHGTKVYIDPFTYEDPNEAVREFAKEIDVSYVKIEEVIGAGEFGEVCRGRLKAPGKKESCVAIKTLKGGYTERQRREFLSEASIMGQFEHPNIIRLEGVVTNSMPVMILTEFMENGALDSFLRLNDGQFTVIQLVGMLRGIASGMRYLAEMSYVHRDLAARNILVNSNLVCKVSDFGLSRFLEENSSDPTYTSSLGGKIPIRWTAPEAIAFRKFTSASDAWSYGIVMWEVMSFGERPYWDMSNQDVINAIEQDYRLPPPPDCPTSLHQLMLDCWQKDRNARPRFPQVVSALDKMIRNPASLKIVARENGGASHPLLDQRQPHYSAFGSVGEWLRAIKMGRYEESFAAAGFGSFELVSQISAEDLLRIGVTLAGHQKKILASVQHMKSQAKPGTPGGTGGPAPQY

[3] = target: Tyrosine-protein kinase Fyn (Homo sapiens, UniProt P06241)
[4] = target: MAP/microtubule affinity-regulating kinase 3 (Homo sapiens, UniProt P27448)
[5] = target: T3, Bifunctional phosphoribosylaminoimidazole carboxylase/phosphoribosylaminoimidazole succinocarboxamide synthetase (Homo sapiens, UniProt P22234)
T3 sequence (P22234 whole entry): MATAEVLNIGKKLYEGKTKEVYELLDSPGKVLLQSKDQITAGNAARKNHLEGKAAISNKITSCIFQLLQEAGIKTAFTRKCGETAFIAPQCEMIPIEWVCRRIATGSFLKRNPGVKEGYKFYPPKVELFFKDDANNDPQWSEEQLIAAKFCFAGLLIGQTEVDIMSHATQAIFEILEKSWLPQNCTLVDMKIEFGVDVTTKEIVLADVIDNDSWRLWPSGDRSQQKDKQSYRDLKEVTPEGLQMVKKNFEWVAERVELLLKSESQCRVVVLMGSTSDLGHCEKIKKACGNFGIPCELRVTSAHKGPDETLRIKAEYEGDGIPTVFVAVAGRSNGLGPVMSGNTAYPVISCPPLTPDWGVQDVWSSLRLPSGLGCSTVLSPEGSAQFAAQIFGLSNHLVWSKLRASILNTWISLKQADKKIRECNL

[6] = target: T4, Signal recognition particle receptor subunit alpha (Homo sapiens, UniProt P08240)
T4 sequence (P08240 whole entry): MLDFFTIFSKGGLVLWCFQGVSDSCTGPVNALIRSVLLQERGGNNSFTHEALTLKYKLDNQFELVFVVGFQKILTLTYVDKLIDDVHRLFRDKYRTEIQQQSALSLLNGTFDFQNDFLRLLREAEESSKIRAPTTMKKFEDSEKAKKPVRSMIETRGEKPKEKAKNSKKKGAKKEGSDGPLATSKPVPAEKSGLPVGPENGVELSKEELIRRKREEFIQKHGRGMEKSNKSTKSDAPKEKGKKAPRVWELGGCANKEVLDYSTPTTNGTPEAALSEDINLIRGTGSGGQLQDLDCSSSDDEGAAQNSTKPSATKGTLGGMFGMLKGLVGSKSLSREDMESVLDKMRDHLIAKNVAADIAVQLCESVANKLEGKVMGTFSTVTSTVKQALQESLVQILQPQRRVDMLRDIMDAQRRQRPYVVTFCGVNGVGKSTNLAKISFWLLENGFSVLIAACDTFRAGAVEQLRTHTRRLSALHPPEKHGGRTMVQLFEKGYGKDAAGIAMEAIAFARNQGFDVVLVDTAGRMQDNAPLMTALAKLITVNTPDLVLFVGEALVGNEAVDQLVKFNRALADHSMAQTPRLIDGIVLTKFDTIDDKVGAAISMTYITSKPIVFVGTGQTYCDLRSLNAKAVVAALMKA
Also: in the data inactive means no Kd found up to 30 µM.

Sequence of AP2-associated protein kinase 1 (Q2M2I8 whole entry): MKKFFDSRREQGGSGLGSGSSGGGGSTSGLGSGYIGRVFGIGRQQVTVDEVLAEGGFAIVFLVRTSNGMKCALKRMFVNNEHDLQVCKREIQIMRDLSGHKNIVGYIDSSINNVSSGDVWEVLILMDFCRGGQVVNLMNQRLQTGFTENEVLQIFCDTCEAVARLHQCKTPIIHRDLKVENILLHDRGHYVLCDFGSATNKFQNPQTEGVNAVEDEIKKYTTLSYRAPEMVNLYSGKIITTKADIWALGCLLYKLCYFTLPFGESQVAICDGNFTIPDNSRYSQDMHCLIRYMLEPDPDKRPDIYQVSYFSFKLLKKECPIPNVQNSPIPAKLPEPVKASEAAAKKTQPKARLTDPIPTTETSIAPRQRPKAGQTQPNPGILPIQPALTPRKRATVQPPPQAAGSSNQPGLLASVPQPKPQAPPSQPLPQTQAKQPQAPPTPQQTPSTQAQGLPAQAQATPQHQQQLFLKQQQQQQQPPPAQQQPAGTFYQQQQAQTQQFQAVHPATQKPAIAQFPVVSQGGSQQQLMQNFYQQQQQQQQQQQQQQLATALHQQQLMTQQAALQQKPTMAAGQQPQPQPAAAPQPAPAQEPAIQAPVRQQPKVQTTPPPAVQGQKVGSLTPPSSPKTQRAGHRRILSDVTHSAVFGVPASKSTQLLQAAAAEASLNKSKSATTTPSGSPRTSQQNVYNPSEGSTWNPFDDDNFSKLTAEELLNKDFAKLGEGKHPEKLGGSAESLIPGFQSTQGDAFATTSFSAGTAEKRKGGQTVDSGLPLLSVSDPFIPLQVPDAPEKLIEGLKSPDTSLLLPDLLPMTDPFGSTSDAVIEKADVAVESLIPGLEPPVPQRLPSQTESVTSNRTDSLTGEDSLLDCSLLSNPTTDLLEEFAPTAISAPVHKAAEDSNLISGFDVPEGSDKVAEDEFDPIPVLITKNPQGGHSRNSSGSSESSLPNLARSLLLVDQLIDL
Sequence of MAP/microtubule affinity-regulating kinase 3 (P27448 whole entry): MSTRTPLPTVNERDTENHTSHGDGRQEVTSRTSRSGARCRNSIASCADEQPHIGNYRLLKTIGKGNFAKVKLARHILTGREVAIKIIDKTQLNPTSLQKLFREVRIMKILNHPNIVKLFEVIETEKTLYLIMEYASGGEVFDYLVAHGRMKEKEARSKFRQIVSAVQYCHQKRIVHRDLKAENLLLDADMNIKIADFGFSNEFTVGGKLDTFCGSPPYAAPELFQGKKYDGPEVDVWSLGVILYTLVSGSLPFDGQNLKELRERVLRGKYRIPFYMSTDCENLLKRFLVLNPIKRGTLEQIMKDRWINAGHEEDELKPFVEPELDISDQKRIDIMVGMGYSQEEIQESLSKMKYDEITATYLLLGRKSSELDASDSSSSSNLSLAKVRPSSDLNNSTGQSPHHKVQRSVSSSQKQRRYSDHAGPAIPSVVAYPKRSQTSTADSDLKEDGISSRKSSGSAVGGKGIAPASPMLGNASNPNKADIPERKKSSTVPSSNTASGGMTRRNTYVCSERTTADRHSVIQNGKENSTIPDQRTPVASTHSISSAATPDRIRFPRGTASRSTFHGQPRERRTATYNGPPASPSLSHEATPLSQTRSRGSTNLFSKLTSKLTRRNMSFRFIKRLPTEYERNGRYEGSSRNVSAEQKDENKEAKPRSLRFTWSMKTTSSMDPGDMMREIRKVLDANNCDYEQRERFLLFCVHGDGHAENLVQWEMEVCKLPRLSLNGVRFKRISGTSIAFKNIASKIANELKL
Sequence of Tyrosine-protein kinase Fyn (P06241 whole entry): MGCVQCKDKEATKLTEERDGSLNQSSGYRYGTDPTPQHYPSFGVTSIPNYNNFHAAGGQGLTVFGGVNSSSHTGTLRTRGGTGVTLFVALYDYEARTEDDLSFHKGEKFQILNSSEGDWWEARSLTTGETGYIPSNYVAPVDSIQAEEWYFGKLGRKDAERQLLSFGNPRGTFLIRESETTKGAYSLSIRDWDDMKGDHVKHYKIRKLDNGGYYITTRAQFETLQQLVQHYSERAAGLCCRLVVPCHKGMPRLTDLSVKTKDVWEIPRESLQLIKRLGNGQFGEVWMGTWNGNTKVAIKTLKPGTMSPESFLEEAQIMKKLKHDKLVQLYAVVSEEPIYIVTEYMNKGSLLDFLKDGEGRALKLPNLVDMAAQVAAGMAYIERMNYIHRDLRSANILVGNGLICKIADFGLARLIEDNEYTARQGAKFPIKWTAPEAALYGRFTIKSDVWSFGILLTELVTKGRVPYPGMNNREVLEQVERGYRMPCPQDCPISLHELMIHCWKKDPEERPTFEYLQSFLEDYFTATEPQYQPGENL

Kd [1]	Kd [2]	Kd (Ephrin type-B receptor 4)	Kd [3]	Kd [4]	Kd [5]	Kd [6]	SMILES
> 30 µM (inactive)	> 30 µM (inactive)	> 30 µM (inactive)	> 30 µM (inactive)	> 30 µM (inactive)	> 30 µM (inactive)	> 30 µM (inactive)	C[C@@H](Nc1cc(F)cc(F)c1)c1cc(C(=O)N(C)C)cc2c(=O)cc(N3CCOCC3)oc12 [AZD-8186]
> 30 µM (inactive)	> 30 µM (inactive)	> 30 µM (inactive)	> 30 µM (inactive)	> 30 µM (inactive)	> 30 µM (inactive)	> 30 µM (inactive)	Cc1cc([C@@H](C)Nc2ccccc2C(=O)O)c2nc(N3CCOCC3)cc(=O)n2c1 [AZD-6482]
0.046 µM (active)	> 30 µM (inactive)	> 30 µM (inactive)	> 30 µM (inactive)	0.104 µM (active)	> 30 µM (inactive)	> 30 µM (inactive)	CCS(=O)(=O)N1CC(CC#N)(n2cc(-c3ncnc4[nH]ccc34)cn2)C1 [BARICITINIB]
> 30 µM (inactive)	> 30 µM (inactive)	> 30 µM (inactive)	> 30 µM (inactive)	> 30 µM (inactive)	> 30 µM (inactive)	> 30 µM (inactive)	CN1N=C(N)c2cn([C@@H]3O[C@H](COP(=O)(O)O)[C@@H](O)[C@H]3O)c3ncnc1c23 [TRICIRIBINE PHOSPHATE]
> 30 µM (inactive)	> 30 µM (inactive)	> 30 µM (inactive)	> 30 µM (inactive)	> 30 µM (inactive)	> 30 µM (inactive)	> 30 µM (inactive)	CNC(=O)c1cc(Oc2ccc(NC(=O)Nc3ccc(Cl)c(C(F)(F)F)c3)c(F)c2)ccn1 [REGORAFENIB]
> 30 µM (inactive)	> 30 µM (inactive)	> 30 µM (inactive)	> 30 µM (inactive)	> 30 µM (inactive)	> 30 µM (inactive)	> 30 µM (inactive)	CNS(=O)(=O)Nc1nccc(Cc2c(C)c3ccc(Oc4ncccn4)cc3oc2=O)c1F [AVUTOMETINIB]
> 30 µM (inactive)	> 30 µM (inactive)	> 30 µM (inactive)	> 30 µM (inactive)	> 30 µM (inactive)	> 30 µM (inactive)	> 30 µM (inactive)	COc1cc2nccc(Oc3ccc(NC(=O)NC4CC4)c(Cl)c3)c2cc1C(N)=O [LENVATINIB]
> 30 µM (inactive)	> 30 µM (inactive)	> 30 µM (inactive)	> 30 µM (inactive)	> 30 µM (inactive)	> 30 µM (inactive)	> 30 µM (inactive)	Cc1cc2c(F)c(Oc3ncnn4cc(OC[C@@H](C)OC(=O)[C@H](C)N)c(C)c34)ccc2[nH]1 [BRIVANIB ALANINATE]
> 30 µM (inactive)	> 30 µM (inactive)	> 30 µM (inactive)	> 30 µM (inactive)	> 30 µM (inactive)	> 30 µM (inactive)	> 30 µM (inactive)	Cc1ccc(S(=O)(=O)Nc2nc3ccccc3nc2Nc2ccc3nsnc3c2)cc1
> 30 µM (inactive)	> 30 µM (inactive)	> 30 µM (inactive)	> 30 µM (inactive)	> 30 µM (inactive)	> 30 µM (inactive)	> 30 µM (inactive)	Cc1c(F)cc(C(=O)NC2CC2)cc1-c1ccc(C(=O)NCC(C)(C)C)cn1 [LOSMAPIMOD]
> 30 µM (inactive)	> 30 µM (inactive)	> 30 µM (inactive)	> 30 µM (inactive)	> 30 µM (inactive)	> 30 µM (inactive)	> 30 µM (inactive)	CCn1c(=O)c(-c2cc[nH]n2)cc2c(C)nc(N)nc21 [VOXTALISIB]
> 30 µM (inactive)	> 30 µM (inactive)	> 30 µM (inactive)	> 30 µM (inactive)	> 30 µM (inactive)	> 30 µM (inactive)	> 30 µM (inactive)	CC(=O)Nc1cccc(-n2c(=O)n(C3CC3)c(=O)c3c(Nc4ccc(I)cc4F)n(C)c(=O)c(C)c32)c1 [TRAMETINIB]
> 30 µM (inactive)	> 30 µM (inactive)	26.4 µM (active)	> 30 µM (inactive)	> 30 µM (inactive)	> 30 µM (inactive)	> 30 µM (inactive)	CCN1CCN(Cc2ccc(-c3cc4c(N[C@H](C)c5ccccc5)ncnc4[nH]3)cc2)CC1 [AEE-788]
0.035 µM (active)	> 30 µM (inactive)	> 30 µM (inactive)	> 30 µM (inactive)	> 30 µM (inactive)	> 30 µM (inactive)	> 30 µM (inactive)	O=C1NC(=O)/C(=C/c2ccc3nccc(-c4ccncc4)c3c2)S1 [GSK-1059615]
> 30 µM (inactive)	> 30 µM (inactive)	> 30 µM (inactive)	> 30 µM (inactive)	> 30 µM (inactive)	> 30 µM (inactive)	> 30 µM (inactive)	CN1CCC(CNc2ccc3ncc(-c4cccc(OC(F)(F)F)c4)n3n2)CC1 [SGI-1776]
> 30 µM (inactive)	> 30 µM (inactive)		> 30 µM (inactive)	> 30 µM (inactive)	> 30 µM (inactive)	> 30 µM (inactive)	COc1cc2nccc(Oc3ccc(NC(=O)Nc4cc(C)on4)c(Cl)c3)c2cc1OC [TIVOZANIB]

SMILES	Kd [1]	Kd [2]	Kd (Ephrin type-B receptor 4)	Kd [3]	Kd [4]	Kd [5]	Kd [6]
COC(=O)[C@@]1(O)C[C@H]2O[C@]1(C)n1c3ccccc3c3c4c(c5c6ccccc6n2c5c31)C(=O)NC4 [K-252A]	0.005 µM (active)	> 30 µM (inactive)	> 30 µM (inactive)	> 30 µM (inactive)	0.384 µM (active)	> 30 µM (inactive)	
